In test [1] the test system is A549. Briefly: A549 assay: screening of cancer cell growth inhibiting compound. Type of test: cell-based. Particulars: Homo sapiens, 72 h; A549 cells, three days, WST-8; read-out: A549 IC50. The gist of the method: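 A549 cells (1×10^4/ml) in D-MEM with 10% FBS were pre-incubated one day at 37 °C, then exposed to compound dilutions for three further days. Viable cell number read by WST-8 (1–4 hours), absorbance 450 nm (reference 620 nm); inhibition calculated relative to untreated wells.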

Test [2] concerns the target T1, TTK (Homo sapiens, UniProt P33981).
T1 sequence (P33981 1-857): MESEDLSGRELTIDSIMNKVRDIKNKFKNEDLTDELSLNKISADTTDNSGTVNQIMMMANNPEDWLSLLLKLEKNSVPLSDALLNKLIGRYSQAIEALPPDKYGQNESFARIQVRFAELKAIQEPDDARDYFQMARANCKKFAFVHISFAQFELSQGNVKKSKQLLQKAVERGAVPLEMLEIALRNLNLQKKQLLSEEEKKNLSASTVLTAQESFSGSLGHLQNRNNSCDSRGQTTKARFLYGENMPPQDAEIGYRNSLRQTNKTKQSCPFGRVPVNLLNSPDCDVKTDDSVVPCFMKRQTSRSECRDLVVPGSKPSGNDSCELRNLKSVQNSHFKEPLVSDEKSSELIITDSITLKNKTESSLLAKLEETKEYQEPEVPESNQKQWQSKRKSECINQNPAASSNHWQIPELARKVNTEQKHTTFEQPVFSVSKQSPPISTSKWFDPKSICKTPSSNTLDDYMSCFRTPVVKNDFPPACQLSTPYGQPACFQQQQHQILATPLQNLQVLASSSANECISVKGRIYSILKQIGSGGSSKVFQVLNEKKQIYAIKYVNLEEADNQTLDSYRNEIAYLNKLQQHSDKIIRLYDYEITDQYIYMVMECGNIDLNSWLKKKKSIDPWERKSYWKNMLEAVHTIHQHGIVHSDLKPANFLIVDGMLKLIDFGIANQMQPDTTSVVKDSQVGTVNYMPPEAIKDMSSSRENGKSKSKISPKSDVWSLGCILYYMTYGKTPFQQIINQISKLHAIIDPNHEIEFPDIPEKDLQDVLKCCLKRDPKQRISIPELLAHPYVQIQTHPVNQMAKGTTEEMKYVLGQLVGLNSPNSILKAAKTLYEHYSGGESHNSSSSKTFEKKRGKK
The test is described as follows: TTK assay: screening of TTK kinase activity suppressing action using p38 MAPK peptide. The test is classed as biochemical. The note with it: p38 MAPK peptide substrate; read-out: TTK IC50. The gist of the method:
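TTK (4 μg/ml in enzyme solution) mixed with p38 MAPK peptide and ATP (each 60 μM in substrate solution) in Tris-HCl pH 7.5 with MgCl2, DTT, Na3VO4, β-glycerophosphate, BSA. Reaction aliquot captured on NeutrAvidin plate, detected with Eu-labelled anti-mouse IgG by time-resolved fluorescence; inhibition relative to no-compound signal.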

The structures appear in SMILES notation. pIC50: −log10 of the molar value.

As to `Cc1ccc(Oc2cc(NCC3CCOCC3)c3ncc(-c4ccc(C(=O)NC5CC5)cc4)n3n2)cc1` [Example 2-103], the values for the pIC50 in test [1] and in test [2] were 6.30 to 7.30 and 8.36, respectively.

For the molecule `O=C(NC1CC1)c1ccc(-c2cnc3c(NCC4CCOCC4)cc(Oc4cccc(F)c4)nn23)cc1` [Example 2-106], the results for the pIC50 in test [1] and in test [2] were at least 7.30 and 8.19, respectively.

Regarding `Cc1cccc(C)c1Oc1cc(NCC2CCOCC2)c2ncc(-c3ccc(C(=O)NC4CC4)cc3)n2n1` [Example 2-107], the pIC50 in test [1] was 6.30 to 7.30; in test [2], 7.46.

On to `COc1cccc(Oc2cc(NCC3CCOCC3)c3ncc(-c4ccc(C(=O)NC5CC5)cc4)n3n2)c1` [Example 2-109], for which the pIC50 is 6.30 to 7.30 in test [1] and 8.48 in test [2].

For the molecule `O=C(NC1CC1)c1ccc(-c2cnc3c(NCC4CCOCC4)cc(Oc4cccc(O)c4)nn23)cc1` [Example 2-110], the pIC50 is 6.30 to 7.30 in test [1] and 8.54 in test [2].

Turning to `O=C(NC1CC1)c1ccc(-c2cnc3c(NCC4CCOCC4)cc(Oc4cccc(C(F)(F)F)c4)nn23)cc1` [Example 2-111], the pIC50 was 6.30 to 7.30 in test [1] and 8.42 in test [2].

Regarding `COc1ccc(Oc2cc(NCC3CCOCC3)c3ncc(-c4ccc(C(=O)NC5CC5)cc4)n3n2)c(F)c1` [Example 2-112], the pIC50 was at least 7.30 in test [1] and 8.57 in test [2].

For `O=C(NC1CC1)c1ccc(-c2cnc3c(NCC4CCOCC4)cc(Oc4cccc(Cl)c4)nn23)cc1` [Example 2-114], the pIC50 in test [1] was 6.30 to 7.30; in test [2], 8.60.

Consider `O=C(NC1CC1)c1ccc(-c2cnc3c(NCC4CCOCC4)cc(Oc4cccc(F)c4O)nn23)cc1` [Example 2-117], for which the values for the pIC50 in test [1] and in test [2] were at least 7.30 and 8.54, respectively.

Turning to `O=C(NC1CC1)c1ccc(-c2cnc3c(NCC4CCOCC4)cc(Oc4cc(F)ccc4O)nn23)cc1` [Example 2-118], the figures for the pIC50 in test [1] and in test [2] were at least 7.30 and 8.66, respectively.

As for `O=C(NC1CC1)c1ccc(-c2cnc3c(NCC4CCCCC4)cc(NC4CCCCC4)nn23)cc1` [Example 2-125], the results for the pIC50 in test [1] and in test [2] were 6.30 to 7.30 and 8.07, respectively.

As to `CN1CCC(CNc2cc(NC3CCCCC3)nn3c(-c4ccc(C(=O)NC5CC5)cc4)cnc23)CC1` [Example 2-126], the pIC50 in test [1] is 6.30 to 7.30; in test [2], 7.63.

In the case of `CC(=O)N1CCC(CNc2cc(NC3CCCCC3)nn3c(-c4ccc(C(=O)NC5CC5)cc4)cnc23)CC1` [Example 2-127], the pIC50 in test [1] was 6.30 to 7.30; in test [2] it was 8.30.

Take `O=C(NC1CC1)c1ccc(-c2cnc3c(NCC4CCC4)cc(NC4CCCCC4)nn23)cc1` [Example 2-128]: the pIC50 in test [1] was 6.30 to 7.30; in test [2], 8.13.

With `O=C(NC1CC1)c1ccc(-c2cnc3c(NCC4CCCC4)cc(NC4CCCCC4)nn23)cc1` [Example 2-129], the pIC50 in test [1] is 6.30 to 7.30; in test [2] it was 8.17.

As for `O=C(NC1CC1)c1ccc(-c2cnc3c(NCCCCO)cc(NC4CCCCC4)nn23)cc1` [Example 2-130], the values for the pIC50 in test [1] and in test [2] were 6.30 to 7.30 and 8.01, respectively.

For the molecule `O=C(NC1CC1)c1ccc(-c2cnc3c(NCC4CCSCC4)cc(NC4CCCCC4)nn23)cc1` [Example 2-131], the results for the pIC50 in test [1] and in test [2] were 6.30 to 7.30 and 8.26, respectively.

As to `O=C(NC1CC1)c1ccc(-c2cnc3c(NCC4CC4)cc(NC4CCCCC4)nn23)cc1` [Example 2-132], the pIC50 is 6.30 to 7.30 in test [1] and 8.17 in test [2].

Consider `CCC(CC)CNc1cc(NC2CCCCC2)nn2c(-c3ccc(C(=O)NC4CC4)cc3)cnc12` [Example 2-133], for which the pIC50 in test [1] is 6.30 to 7.30; in test [2], 8.17.

Take `O=C(NC1CC1)c1ccc(-c2cnc3c(NCc4ccc(F)cc4)cc(NC4CCCCC4)nn23)cc1` [Example 2-134]: the pIC50 is 6.30 to 7.30 in test [1] and 8.18 in test [2].

As for `CC(C)(C)CNc1cc(NC2CCCCC2)nn2c(-c3ccc(C(=O)NC4CC4)cc3)cnc12` [Example 2-135], the pIC50 in test [1] is 6.30 to 7.30; in test [2], 8.02.

On to `O=C(NC1CC1)c1ccc(-c2cnc3c(NCCSCCO)cc(NC4CCCCC4)nn23)cc1` [Example 2-136], for which the pIC50 in test [1] is 6.30 to 7.30; in test [2], 8.14.

For the molecule `CCC(C)CNc1cc(NC2CCCCC2)nn2c(-c3ccc(C(=O)NC4CC4)cc3)cnc12` (stereo not shown) [Example 2-137], the pIC50 is 6.30 to 7.30 in test [1] and 8.14 in test [2].

Consider `COCCCCNc1cc(NC2CCCCC2)nn2c(-c3ccc(C(=O)NC4CC4)cc3)cnc12` [Example 2-138], for which the pIC50 was 6.30 to 7.30 in test [1] and 8.26 in test [2].

`CC(C)CCNc1cc(NC2CCCCC2)nn2c(-c3ccc(C(=O)NC4CC4)cc3)cnc12` [Example 2-139]: the results for the pIC50 in test [1] and in test [2] were 6.30 to 7.30 and 7.98, respectively.

For `CCCNc1cc(NC2CCCCC2)nn2c(-c3ccc(C(=O)NC4CC4)cc3)cnc12` [Example 2-141], the pIC50 in test [1] was 6.30 to 7.30; in test [2], 8.15.

For `CCC(C)Nc1cc(NC2CCCCC2)nn2c(-c3ccc(C(=O)NC4CC4)cc3)cnc12` (stereo not shown) [Example 2-143], the negative-log IC50 (pIC50) in test [1] is 6.00 to 6.30; in test [2], 7.70.

For `O=C(NC1CC1)c1ccc(-c2cnc3c(NCC(F)F)cc(NC4CCCCC4)nn23)cc1` [Example 2-144], the negative logarithm of the IC50 (pIC50) in test [1] is 6.30 to 7.30; in test [2] it was 8.46.

For `O=C(NC1CC1)c1ccc(-c2cnc3c(NCC(F)(F)F)cc(NC4CCCCC4)nn23)cc1` [Example 2-145], the negative-log IC50 (pIC50) in test [1] is 6.30 to 7.30; in test [2] it was 8.52.

For the molecule `O=C(NC1CC1)c1ccc(-c2cnc3c(NCC4CCS(=O)(=O)CC4)cc(NC4CCCCC4)nn23)cc1` [Example 2-146], the pIC50 was 6.00 to 6.30 in test [1] and 8.42 in test [2].

Regarding `O=C(NC1CC1)c1ccc(-c2cnc3c(NCc4cncs4)cc(NC4CCCCC4)nn23)cc1` [Example 2-147], the pIC50 in test [1] was 6.30 to 7.30; in test [2] it was 8.54.

For the molecule `Cn1cncc1CNc1cc(NC2CCCCC2)nn2c(-c3ccc(C(=O)NC4CC4)cc3)cnc12` [Example 2-148], the pIC50 in test [1] is 6.00 to 6.30; in test [2], 8.41.

`Cn1cnc(CNc2cc(NC3CCCCC3)nn3c(-c4ccc(C(=O)NC5CC5)cc4)cnc23)c1` [Example 2-149]: the negative logarithm of the IC50 (pIC50) is 6.30 to 7.30 in test [1] and 8.27 in test [2].

In the case of `Cn1cc(CNc2cc(NC3CCCCC3)nn3c(-c4ccc(C(=O)NC5CC5)cc4)cnc23)cn1` [Example 2-150], the pIC50 in test [1] was 6.30 to 7.30; in test [2] it was 8.42.

Consider `O=C(NC1CC1)c1ccc(-c2cnc3c(NCc4cccs4)cc(NC4CCCCC4)nn23)cc1` [Example 2-151], for which the results for the pIC50 in test [1] and in test [2] were 6.30 to 7.30 and 8.51, respectively.

Regarding `O=C(NC1CC1)c1ccc(-c2cnc3c(NCc4ccco4)cc(NC4CCCCC4)nn23)cc1` [Example 2-152], the values for the pIC50 in test [1] and in test [2] were 6.30 to 7.30 and 8.44, respectively.

Consider `O=C(NC1CC1)c1ccc(-c2cnc3c(NCC45CCN(CC4)CC5)cc(NC4CCCCC4)nn23)cc1` [Example 2-153], for which the pIC50 in test [1] was 6.30 to 7.30; in test [2], 8.12.

In the case of `O=C(NC1CC1)c1ccc(-c2cnc3c(NCc4ccccn4)cc(NC4CCCCC4)nn23)cc1` [Example 2-154], the pIC50 in test [1] was 6.30 to 7.30; in test [2], 8.30.

Consider `O=C(NC1CC1)c1ccc(-c2cnc3c(NCc4ccncc4)cc(NC4CCCCC4)nn23)cc1` [Example 2-155], for which the results for the pIC50 in test [1] and in test [2] were 6.30 to 7.30 and 8.39, respectively.

Consider `O=C(NC1CC1)c1ccc(-c2cnc3c(NCc4cccnc4)cc(NC4CCCCC4)nn23)cc1` [Example 2-156], for which the pIC50 in test [1] was 6.30 to 7.30; in test [2], 8.36.

Turning to `O=C(NC1CC1)c1ccc(-c2cnc3c(NCc4ccoc4)cc(NC4CCCCC4)nn23)cc1` [Example 2-157], the pIC50 in test [1] was 6.30 to 7.30; in test [2], 8.47.

Turning to `Cc1cc(CNc2cc(NC3CCCCC3)nn3c(-c4ccc(C(=O)NC5CC5)cc4)cnc23)no1` [Example 2-158], the pIC50 in test [1] was 6.30 to 7.30; in test [2] it was 8.49.

As to `Cn1ccc(CNc2cc(NC3CCCCC3)nn3c(-c4ccc(C(=O)NC5CC5)cc4)cnc23)n1` [Example 2-159], the figures for the negative-log IC50 (pIC50) in test [1] and in test [2] were 6.30 to 7.30 and 7.58, respectively.

In the case of `O=C(NC1CC1)c1ccc(-c2cnc3c(NCc4nccs4)cc(NC4CCCCC4)nn23)cc1` [Example 2-160], the pIC50 is 6.30 to 7.30 in test [1] and 8.51 in test [2].

What is called pIC50 is the IC50 on a negative log10 scale, so that one unit is a factor of ten.

The record behind these values is patent publication US20120059162A1, “FUSED IMIDAZOLE DERIVATIVE HAVING TTK INHIBITORY ACTION” (Oncotherapy Science, Inc., priority 2009, published 2012).
